This is an account of results in patent US20030092613A1, “Alpha7 nicotinic receptor peptides as ligands for beta amyloid peptides” (priority 2000, published 2003).

Like-named read-outs stand apart in the source and are kept apart here.

The target of one data set is T1, α7nAChR (Homo sapiens, UniProt P36544).
T1 construct: expressed in transfected cells; host or cells: SK-N-MC (ATCC HTB-10), membranes
Briefly: α7nAChR binding assay: 125I-β-amyloid1-40 binding to α7SK-N-MC membranes (SPA). The following applies: inhibition of 125I-β-amyloid1-40 (20 pM) binding to α7SK-N-MC membranes. On the procedure: α7nAChR (nicotinic acetylcholine receptor) binding assay: Membranes from recombinant SK-N-MC cells (ATCC#HTB-10) overexpressing α7nAChR (α7SK-N-MC) were prepared according to standard procedures (Wang et al, J. Biol Chem. 275, 5626-5632, 2000) except that the membranes were thoroughly washed. For each assay, membranes (20 μg) were precoupled to wheat germ agglutinin yittrium SPA beads (250 μg, Amersham) in 50 mM HEPES (pH 7.5) containing 0.01% BSA, 2 mM Mg^2+, 2 mM Ca^2+ and protease inhibitors (Boehringer Mannheim, Germany). […] At the end of the incubation (30 min), bound radioactivity was measured in a TopCount (Packard, Meriden, Conn.). Data were analyzed using Graphpad Prism software (Graphpad Software Incorporated).

Data set [1] relates to guinea pig hippocampal synaptosomes. Briefly: ACh release from guinea pig hippocampal synaptosomes (β-amyloid inhibition of K+-evoked release). The data set is classed as cell-based. The following applies: attenuation of β-amyloid's inhibition on potassium-evoked ACh release. On the procedure: ACh release from guinea pig hippocampal synaptosomes: Synaptosomes (P2 fraction) were prepared from guinea pig hippocampus as described previously and re-suspended in a Krebs-Ringer solution containing 0.1 μM [methyl-^3H]choline chloride (NEN, Boston, Mass.) and incubated at 37° C. for 30 min. Unincorporated choline was removed by washing and the synaptosomes were resuspended in Krebs-Ringer solution to 10 mg/mL. ACh release from synaptosomes was measured using the parallel superfusion chambers (Hugo Sachs Elektronik, March-Hugstetten, Germany) according to that described earlier (Wang, H. -Y. et al Neuropeptides 1999; 33, 197-205). […]
The tissues were treated with peptides and ACh release was evoked by superfusing with 65 mM K^+-Krebs-Ringer (made by equimolar replacement of NaCl with KCl) for 30 seconds. […] The amount of ^3H in the superfusate samples was measured by liquid scintillation spectrometry.
Tritiurn efflux into the superfusate was calculated as the fraction of ^3H content in the synaptosomes at the onset of the respective collection period. […]
Data are expressed as the mean fractional ^3H release±S.E.M. Statistical differences between treatments were tested by Student's t test, two-tailed or the two-factor ANOVA as appropriate. Individual differences in the dose-response curve were evaluated by the Newman-Keuls multiple comparison test.

Data set [2] concerns the target huma7 peptide / β-amyloid1-40 (Homo sapiens, UniProt P36544). Briefly: Huma7 binding assay: 125I-β-amyloid1-40 binding to immobilized huma7 peptide.
In data set [3] the test system is Biotin-huma7-5. Kind of data set: Fluo-β-amyloid1-42 binding assay to Biotin-huma7-5. Further details: species or system human.
The test system of data set [4] is Biotin-huma7-5. Details: species or system human. The following applies: read-out: IC50, 125I-α-BTX binding to Biotin-huma7-5.
Setting [5] is: first phase, read-out: Calculated EC50 for biphasic response, EC50 - 1.
Setting [6] is: second phase, read-out: Calculated EC50 for biphasic response, EC50 - 2.

T1 sequence (P36544 23-502): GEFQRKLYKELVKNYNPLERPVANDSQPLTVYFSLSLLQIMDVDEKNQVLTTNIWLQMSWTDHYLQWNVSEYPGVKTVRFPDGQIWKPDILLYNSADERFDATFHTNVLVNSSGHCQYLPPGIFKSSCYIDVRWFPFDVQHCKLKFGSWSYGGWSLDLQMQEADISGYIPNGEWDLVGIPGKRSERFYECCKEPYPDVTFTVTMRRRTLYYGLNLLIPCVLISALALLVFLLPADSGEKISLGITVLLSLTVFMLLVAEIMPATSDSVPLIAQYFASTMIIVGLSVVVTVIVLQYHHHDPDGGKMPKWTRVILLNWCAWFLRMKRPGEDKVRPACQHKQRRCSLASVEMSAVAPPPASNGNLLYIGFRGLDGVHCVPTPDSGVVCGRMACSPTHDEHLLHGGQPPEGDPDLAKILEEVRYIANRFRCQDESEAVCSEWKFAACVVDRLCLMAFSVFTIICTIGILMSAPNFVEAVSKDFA
huma7 peptide / β-amyloid1-40, sequence (P36544 193-224): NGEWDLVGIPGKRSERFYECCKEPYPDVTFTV

A word on the EC50: it is the midpoint of the concentration-response curve. As for `N[C@@H](Cc1ccc(O)cc1)C(=O)N1CCC[C@H]1C(=O)N[C@@H](Cc1c[nH]c2ccccc12)C(=O)N[C@@H](Cc1ccccc1)C(=O)O` [YPWF peptide, YPWF], the results for the EC50 at α7nAChR (setting [5]) and at α7nAChR (setting [6]) were 0.00351 nM and 20.3 nM, respectively.

For the compound 28 (ECCK) [compound 28], the “ACh rel % Inh @ 100 μM” value in data set [1] worked out at 87%. As for `CCCN(CCC)C1Cc2c(O)ccc(O)c2CC1C` (centres unmarked) [Inhibitor A], the “inhibition of 125I-β-amyloid1-40 binding to immobilized huma7” value in data set [2] (10 μM inhibitors, FIG. 2) is “can be inhibited”. Moreover, the EC50 was 0.133 nM on α7nAChR (setting [5]) and 34700 nM on α7nAChR (setting [6]). In the case of Aβ42: β-amyloid peptide1-42, the “% Inh @ 100 μM, Fluo-β-amyloid1-42 binding to Biotin-huma7-5” value with Biotin-huma7-5 [3] (100 μM, 100 nM Fluo-β-amyloid1-42, 1 hr at 25° C.) came out at 85%. One may read the IC50 as the concentration at which inhibition is half-maximal. Take α-bungarotoxin [α-BTX]: the “% Inh @ 100 μM, Fluo-β-amyloid1-42 binding to Biotin-huma7-5” value in the data set with Biotin-huma7-5 [3] stood at 100%. The IC50 with Biotin-huma7-5 [4] is 100 nM. In addition, the “inhibition of 125I-β-amyloid1-40 binding to immobilized huma7” value in data set [2] is given as “can be inhibited”. Take `CC(C)C[C@H](NC(=O)[C@H](CCCCN)NC(=O)[C@H](CCC(N)=O)NC(=O)[C@H](Cc1c[nH]cn1)NC(=O)[C@H](Cc1c[nH]cn1)NC(=O)[C@@H](N)C(C)C)C(=O)N[C@H](C(=O)N[C@@H](Cc1ccccc1)C(=O)N[C@@H](Cc1ccccc1)C(=O)N[C@@H](C)C(=O)N[C@@H](CCC(=O)O)C(=O)N[C@@H](CC(=O)O)C(=O)N[C@H](C(=O)NCC(=O)N[C@@H](CO)C(=O)N[C@@H](CC(N)=O)C(=O)N[C@@H](CCCCN)C(=O)O)C(C)C)C(C)C` [Aβ12-28]: the IC50 in the data set on Biotin-huma7-5 [4] amounted to 400 nM.
